Biological target: T1, DoGES1 (Dendrobium officinale, UniProt A0A7H9SVV5)
T1 construct: gene GES1
T1 sequence (A0A7H9SVV5 1-582): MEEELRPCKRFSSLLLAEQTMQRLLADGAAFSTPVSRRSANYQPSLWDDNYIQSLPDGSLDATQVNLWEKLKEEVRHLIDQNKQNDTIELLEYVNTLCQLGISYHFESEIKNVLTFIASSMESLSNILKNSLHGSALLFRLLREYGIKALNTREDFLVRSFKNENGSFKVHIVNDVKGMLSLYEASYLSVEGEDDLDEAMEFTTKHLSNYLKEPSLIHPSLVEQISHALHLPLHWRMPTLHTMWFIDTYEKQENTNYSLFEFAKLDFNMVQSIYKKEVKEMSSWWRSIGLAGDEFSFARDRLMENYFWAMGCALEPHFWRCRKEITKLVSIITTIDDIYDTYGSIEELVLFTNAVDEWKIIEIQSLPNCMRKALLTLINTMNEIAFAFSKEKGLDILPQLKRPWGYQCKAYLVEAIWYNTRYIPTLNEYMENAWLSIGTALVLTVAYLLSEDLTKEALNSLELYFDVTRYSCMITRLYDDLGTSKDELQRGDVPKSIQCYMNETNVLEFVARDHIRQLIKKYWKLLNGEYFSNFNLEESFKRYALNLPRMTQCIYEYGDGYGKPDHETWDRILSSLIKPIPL
Test: GC-MS detection of geraniol product
Type: biochemical
Details: 10 mM GPP, 10 mM MgCl2, 5 mM dithiothreitol, MOPSO pH 7.0, 30 °C, 1 h

With `CC(C)=CCC/C(C)=C/COP(=O)(O)OP(=O)(O)O` [geranyl pyrophosphate] the “GC-MS detection of geraniol product” value was “After incubation with GPP as substrate for the synthesis of monoterpenes, recombinant DoGES1 proteins successfully yielded geraniol”.
